# Key:
# Assay type in all cases: cell-based, human
# frataxin precursor = test: Western blot of frataxin in HEK293 Flp-In cells stably transfected with frataxin (HEK293-fxn)
# Experimental: For the validation steps, etravirine (TMC125) was purchased from Selleckchem and was dissolved in DMSO at a stock concentration of 10 mM. HEK-293 Flp-In cells, stably overexpressing frataxin, were treated with the drug (or only DMSO) for 24 hours at final concentration of 10 μM. FRDA cells were treated with different concentration of etravirine. For all drug (and no drug) treatments, the final concentration of DMSO in the cell culture medium was 0.1%.
# (§1) Total cell extracts were prepared in lysis buffer (50 mM Tris-HCl, pH 7.5, 150 mM NaCl, 1% Igepal CA-630, 5 mM EDTA, 5 mM EGTA) supplemented with complete protease inhibitor cocktail (Roche Diagnostics, Indianapolis, Ind., USA). […] The immunoreactive bands were detected by ECL (GE Healthcare, Chalfont St. Giles, UK) and imaged with a ChemiDoc XRS system (Bio-Rad). […] All values are expressed as means±1 S.E.M.
# The identified candidate drugs were individually validated for their ability to promote frataxin accumulation in different cell types. […] Protein extracts from the cell lines were resolved on SDS-PAGE and analyzed by western blot with anti-frataxin antibody and anti-tubulin as a loading control. […]
# HEK 293-fxn stably expressing frataxin (A), HEK 293 (B), or FRDA lymphoblast cell line GM16203 (C) were treated with 10 μM etravirine for the indicated time points. Protein extracts were resolved on SDS-PAGE and analyzed by western blot with anti-frataxin antibody and anti-tubulin as a loading control. […] Quantitative analysis of newly-synthesized FXN mRNA was performed by metabolic labeling of nascent RNA using the Click-iT Nascent RNA Capture Kit (Life Technologies), followed by biotin conjugation and isolation with streptavidin beads, according to provider instructions. Nascent frataxin transcripts levels were quantitated by real-time PCR relative to the expression of the control genes ACTB, GUSB and ATP5J. […] Relative levels of total frataxin mRNA were measured by real-time PCR and normalized on expression levels of three control genes ATP5J, GUSB and ACTB using the ΔΔCt method. […]
# frataxin-deficient cells = test: Toxic effect and cell viability of etravirine-treated frataxin-deficient cells; conditions: any of the tested doses
# mature frataxin = test: Western blot of frataxin in primary fibroblasts derived from FRDA patients; conditions: 300 nM etravirine, 24 hours
# Experimental: Lymphoblastoid cell lines from one healthy subject [GM16215] and 7 FRDA patients [GM16228, GM16203, GM16214, GM16223, GM16210, GM16205, GM16216], and primary fibroblasts from 2 FRDA patients [GM02816 and GM04078], were obtained from NIGMS Human Genetic Cell Repository, Coriell Institute for Medical Research (Camden, N.J., USA). Lymphoblasts and fibroblasts were grown at 37° C. and 5% CO2 and were respectively cultured in RPMI or DMEM, supplemented with 15% FBS, […] penicillin/streptomycin and 2 mM L-glutamine.
# For the validation steps, etravirine (TMC125) was purchased from Selleckchem and was dissolved in DMSO at a stock concentration of 10 mM. […]
# as §1
# We chose the minimal effective dose (300 nM) to evaluate the efficacy of etravirine over a broad range of cells derived from FRDA patients. In particular, we analysed 7 lymphoblastoid cell lines derived from FRDA patients and primary fibroblasts derived from two different FRDA patients. […]
# frataxin = test: Western blot of frataxin in lymphoblastoid cell lines derived from FRDA patients; conditions: GM16214, 500 nM etravirine, 24 and 48 hours, compared with GM16215
compound,measurement,setting,value
Cc1cc(C#N)cc(C)c1Oc1nc(Nc2ccc(C#N)cc2)nc(N)c1Br [etravirine],increase in frataxin precursor levels (densitometric ratio frataxin precursor/tubulin),"frataxin precursor; HEK293-fxn, 10 μM of each candidate drug, 24 h",striking upregulation
same,amount of frataxin precursor,"frataxin precursor; HEK293-fxn, etravirine at 10 (μM), detectable after 4 hours, higher after 12 hours",rapid and robust increase
same,frataxin accumulation compared with MG132 treatment,"frataxin precursor; etravirine vs general proteasome inhibitor MG132, cell system not stated",strikingly stronger
same,toxic effect on frataxin-deficient cells,frataxin-deficient cells,does not show any toxic effect
same,cell viability,frataxin-deficient cells; frataxin-deficient cells,does not affect cell viability
same,average fold increase in mature frataxin levels,mature frataxin; GM03816 fibroblasts (380 GAA repeats),1.65 fold
same,average fold increase in mature frataxin levels,mature frataxin; GM04078 fibroblasts (541 GAA repeats),1.71 fold
same,frataxin levels in FRDA cells during etravirine treatment,frataxin,increase over time

# Source: US10426775B2, “Methods for treating Friedreich's ataxia with etravirine” (Fratagene Therapeutics srl, priority 2017, dated 2019)
